Measurements taken from PMC10675340, “Preparation, Radiolabeling with ^68Ga/^177Lu and Preclinical Evaluation of Novel Angiotensin Peptide Analog: A New Class of Peptides for Breast Cancer Targeting” (Pharmaceuticals, 2023).
Where a SMILES comes first, the peptide text is derived from it. Where no end group is shown, it is not given here. [ ]: non-standard residue; d: D form. The star is where a group is joined. DOTA = O=C(O)CN1CCN(CC(=O)O)CCN(CC(=O)*)CCN(CC(=O)O)CC1; βAla = NCCC(=O)O

What was measured:
[1] = tested on: human breast cancer cells; details: cited from earlier work
Experimental: The values were 27.73 ± 5.97 nM for MDA-MB-231 and 35.14 ± 7.09 nM for the MCF7 breast cancer cell line. Thes ...

[2] = tested on: Balb/c mice; assay: In vivo biodistribution in normal Balb/c mice; set-up: species or system mouse; details: Balb/c mice
Experimental: The in vivo biodistribution of ^68Ga-labeled AngII peptide analog was carried out in female Balb/c mice, at various time points, to observe the uptake in the normal tissues and organs and find the excretion route of the radiolabeled peptides. […] Low uptake and retention of the radiopeptide in the liver varying from 1.54 ± 0.28% ID/g at 45 min to 0.48 ± 0.17% ID/g at 2 h p.i. is probably related to the high hydrophilicity (log p = −0.55 ± 0.11) of the ^68Ga-labeled AngII peptide analog. […] The efficient clearance from the kidneys is possibly associated with the urinary excretion of the radiopeptide. […] The low amount of uptake in the bone (up to 0.37 ± 0.14% ID/g) (Table 2) indicates the minimal breakdown of the ^68Ga-labeled AngII peptide complex in vivo combined with the minor release of free ^68Ga. These findings are in agreement with the high in vitro metabolic stability observed in the human plasma for the radiolabeled AngII peptide. The accumulation in the extremely vascular organ lungs was also low (up to 1.11 ± 0.37% ID/g) signifying a low trapping by the lungs.
Approval from the Institutional Animal Care and Use Committee was obtained for the animal protocol used. Additionally, strict international regulations govern the safe and proper use of laboratory animals employed during animal experiments. In vivo, biodistribution was performed on healthy female mice according to the methods essentially described previously. In summary, Balb/c mice (n = 5 per time point, body mass 20–25 g) at 45 min and 2 h were administered with the HPLC-purified AngII peptide (~1 µg, 100 µL, 0.925–1.85 MBq; 25–50 µCi) via lateral tail vein injection. At the specified time points, the animals were sacrificed by cervical dislocation. A fraction of the blood was collected from cardiac puncture. Urine was also collected and measured with the bladder contents. Major organs, such as the lungs, pancreas, stomach, liver, heart, kidneys, and intestines were isolated, weighed, and measured for radioactivity. The uptake values of the radiolabeled peptide in different organs are expressed as the percent injected dose per gram (% ID/g) of tissue/organ. The radioactivity in the urine with bladder contents is shown as the percent of the injected dose per organ (% ID/organ). To calculate the injected dose, a standard (20-fold dilution of injected dose) was prepared and counted together with animal tissue samples.

[3] = In vitro metabolic stability in human plasma; type: in vitro ADME; details: 37 °C, radio-HPLC
Experimental: High proteolytic stability is an important aspect of the tumor-targeting peptides to deliver the highest possible tumor-targeting effect. The extent of proteolytic degradation of the ^177Lu-AngII peptide was determined by incubating the radiolabeled peptide with human plasma at 37° C for up to 5 h. […] A limited release of free ^177Lu amount (up to 10%) indicates the high in vitro plasma stability of the radiolabeled peptide, with low enzymatic breakdown by plasma proteases (Figure 2).
Human plasma was obtained from the institutional blood bank from volunteers’ blood donors (with consent). The metabolic stability of ^177Lu-DOTA-AngII peptide was determined following a method essentially as described previously. In summary, the radiolabeled peptide (50 μL) was mixed with plasma (400 μL) and incubated in duplicate at 37 °C for up to 5 h. After incubation, the plasma proteins were precipitated using a mixture of CH3CN/EtOH (1:1 v/v, 400 μL). The supernatant layer was collected by centrifugation (5000 rpm for 5 min), filtered through a 0.2-µm Millex GP filter, and analyzed by radio-HPLC to assess the product stability.

Molecule | Kd [1] | Biological and excretion pattern compared with the ^68Ga-labeled counterpart [2] | remaining at 5 h ([3]; human plasma 400 μL + 50 μL radiopeptide, duplicate, CH3CN/EtOH precipitation, read-out: Radioactivity still associated with the radiolabeled peptide) | Release of free ^177Lu ([3]; human plasma, 5 h)
^125I-angiotensin II: radioiodinated angiotensin II from the literature, ref 13 (DRVYIHPF; also: radioiodinated (125I label), site not given here; UniProt P01019 25-32, looked up) | ~0.06 µM |  |  | 
CC[C@H](C)[C@H](NC(=O)[C@H](Cc1ccc(O)cc1)NC(=O)[C@@H](NC(=O)[C@H](CCCNC(=N)N)NC(=O)[C@H](CC(=O)O)NC(=O)CCNC(=O)[C@H](CCCCN)NC(=O)CN1CCN(CC(=O)O)CCN(CC(=O)O)CCN(CC(=O)O)CC1)C(C)C)C(=O)N[C@@H](Cc1c[nH]cn1)C(=O)N1CCC[C@H]1C(=O)N[C@@H](Cc1ccccc1)C(=O)N[C@@H](Cc1c[nH]c2ccccc12)C(=O)N[C@@H](CCCCN)C(=O)N[C@@H](Cc1ccc(O)cc1)C(N)=O [^177Lu-DOTA-AngII peptide, metal not drawn] ({DOTA}-K[βAla]DRVYIHPFWKY-NH2) |  | more or less the same biological and excretion pattern | > 90% | up to 10%
